The values below are quoted from earlier work in patent EP1750675B1, “STABLE ORAL PHARMACEUTICAL COMPOSITIONS OF BUP[…] SALT THEREOF” (Galephar M/F, priority 2004, dated 2005).

Each structure is given as a SMILES string. Where a name gives a salt, the structure may show the parent alone. Read-outs that look alike come from different tables or passages of the source.

For data set [1] the following is noted: 20°C.
For data set [2] the following is noted: opioid agonist/antagonist.

The term solubility denotes the dissolved amount per volume that the medium holds. Take `CO[C@]12CC[C@@]3(C[C@@H]1[C@](C)(O)C(C)(C)C)[C@H]1Cc4ccc(O)c5c4[C@@]3(CCN1CC1CC1)[C@H]2O5` [buprenorphine hydrochloride, Buprenorphine hydrochloride]: the stability entry is “stable” (at high temperatures (up to 120°C)); “significant degradation” (in acid and alkaline conditions); “stable” (in neutral solutions (pH 5-7)). Moreover, the solubility is ~0.02 mg/mL in data set [1] (in cyclohexane), ~42 mg/mL in data set [1] (in ethanol), “more than 500 mg/ml” in data set [1] (in glacial acetic acid) and “about 20 mg/ml” in data set [1] (in water).
In the case of `CO[C@]12CC[C@@]3(C[C@@H]1[C@](C)(O)C(C)(C)C)[C@H]1Cc4ccc(O)c5c4[C@@]3(CCN1CC1CC1)[C@H]2O5` [Buprenorphine], the “potency relative to morphine” value in data set [2] is “about forty times as potent as morphine”.
